Measurements published in patent US5061495A, “Antibiotic derived from B. subtilis” (Agricultural Genetics Company Limited, priority 1988, dated 1991).
Read-outs that look alike come from different tables or passages of the source.

Columns and labels:
[1] = cited from earlier work
[2] = cited from earlier work; remark: listed apart in the source
[3] = tested on: wheat powdery mildew (Erysiphe graminis); test: Control of wheat powdery mildew by formulated culture broths; type: in vivo; settings: 14 days
Protocol: B.subtilis NCIB 12376 was grown in a yeast peptone-glucose broth at 30° C. in an orbital shaker for 72 hours. The formulants listed in Table 9 were added to samples of culture broths at the concentrations given in Table 9 and stirred until dispersed or dissolved. The formulated broths were tested for control of wheat powdery mildew (Erysiphe graminis) by spraying to run-off wheat plants (cv. Aquila) at the two leaf stage (Zadocks GS 12) prior to inoculation with an aqueous suspension of E. graminis conidia. For each formulation 20 replicate pots of plants were sprayed. Ten pots from each treatment were then thoroughly drenched with a mist bench for 4 minutes, one hour after spraying. All pots were incubated in a glasshouse for 14 days before assessment of disease levels (Table 9).

In the case of Rhizoctonia factor, the Thermostability ([1]; pH 2 only, refs. 5 and 9) is given as “thermostable only at pH 2”, the Solubility in butanol ([2]; literature) is given as “insoluble” and the Solubility in ethanol ([2]; literature) is given as “insoluble”.
For Chaetomacin, the Solubility in acetone ([2]; literature) is given as “soluble”.
In the case of Iturin A, the Thermostability ([1]; pH 3, 14 and 23) is listed as “thermostable” and the Thermostability ([1]; pH 10, 14 and 23) is listed as “thermostable”.
In the case of Mycobacillin, the Solubility in acetone ([2]; literature) is given as “soluble” and the Solubility in water ([2]; pH values of 7 and below, refs. 20 and 22) is given as “insoluble”.
For CC(C)(C)C(=O)C(Oc1ccc(Cl)cc1)n1cncn1 (centres unmarked) [Triadimefon], the “Disease Level (% leaf area infected)” value ([3]; drenched 4 minutes, one hour after spraying, no treatment 5.6) was 0.1% and the “Disease Level (% leaf area infected)” value ([3]; undrenched, no treatment 2.0) was 0.2%.
For Bacillomycin L, the Thermostability ([1]; pH 3, 14 and 23) is listed as “thermostable”, the Thermostability ([1]; pH 10, 14 and 23) is listed as “thermostable” and the Partition into butanol ([2]; neutral pH) is listed as “does not partition into butanol”.
In the case of Mycosubtilin, the Solubility in butanol ([2]; literature) is given as “insoluble”, the Solubility in ethanol ([2]; literature) is given as “insoluble” and the Solubility in methanol ([2]; methanol, literature) is given as “insoluble”.
In the case of Fungistatin, the “Behaviour on contact with water” value ([2]; water) is listed as “forms an inactive gel when contacted with water”.
